Measurements as given in the supplement of paper PMC10307832.

How the values were obtained:
Assay in all cases: relative viability (nuclei count vs DMSO), 5 days (fraction); higher = more cells survive
[1] = compound: O=C(CCCCCCNC(=O)c1cnc(N(c2ccccc2)c2ccccc2)nc1)NO [Ricolinostat] + N=C(N)NC(=N)NCCc1ccccc1 [Phenformin] (partner 250 µM)
In short: (§1)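 One day after seeding in 1536-well plates, lung cancer cell lines were dosed by pin tool. Dosing was either single-drug or a fixed anchor-drug dose plus five library-drug doses (not always all listed) in √10 steps. After 5 days, nuclei were stained in one fix-and-stain step and counted on 4× images, and relative viability is the nuclei count of treated wells over that of vehicle wells, given as the median of duplicate plates.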

[2] = compound: C1=CC=C(C(=C1)C2=CC=C(C=C2)C3=CSC4=C3C(=C(C(=O)N4)C#N)O)O + COc1cccc2cc(-c3nc([C@H]4CC[C@H](C(=O)O)CC4)n4ncnc(N)c34)[nH]c12 [OSI-027] (partner 0.5 µM)
In short: as §1

TGX 221 + AZD7762 = compound: CC1=CN2C(=O)C=C(N=C2C(=C1)C(C)NC3=CC=CC=C3)N4CCOCC4 [TGX 221] + NC(=O)Nc1cc(-c2cccc(F)c2)sc1C(=O)N[C@H]1CCCNC1 [AZD7762] (partner 0.2 µM)
In short: as §1

Ricolinostat + OSI-027 = compound: O=C(CCCCCCNC(=O)c1cnc(N(c2ccccc2)c2ccccc2)nc1)NO [Ricolinostat] + COc1cccc2cc(-c3nc([C@H]4CC[C@H](C(=O)O)CC4)n4ncnc(N)c34)[nH]c12 [OSI-027] (partner 0.5 µM)
In short: as §1

| Cell Line | relative viability ([1]; first compound 0.08 µM) | relative viability ([1]; first compound 0.253 µM) | relative viability ([1]; first compound 0.8 µM) | relative viability ([1]; first compound 2.53 µM) | relative viability ([2]; first compound 0.08 µM) | relative viability ([2]; first compound 0.253 µM) | relative viability ([2]; first compound 0.8 µM) | relative viability ([2]; first compound 2.53 µM) | relative viability ([2]; first compound 8 µM) | relative viability (TGX 221 + AZD7762; first compound 0.08 µM) | relative viability (TGX 221 + AZD7762; first compound 0.253 µM) | relative viability (TGX 221 + AZD7762; first compound 0.8 µM) | relative viability (TGX 221 + AZD7762; first compound 2.53 µM) | relative viability (TGX 221 + AZD7762; first compound 8 µM) | relative viability (Ricolinostat + OSI-027; first compound 0.08 µM) | relative viability (Ricolinostat + OSI-027; first compound 0.253 µM) | relative viability (Ricolinostat + OSI-027; first compound 0.8 µM) | relative viability (Ricolinostat + OSI-027; first compound 2.53 µM) |
| --- | --- | --- | --- | --- | --- | --- | --- | --- | --- | --- | --- | --- | --- | --- | --- | --- | --- | --- |
| 201T | 0.41 | 0.449 | 0.452 | 0.467 | 0.709 | 0.665 | 0.795 | 0.699 | 0.531 | 0.55 | 0.685 | 0.611 | 0.615 | 0.569 | 0.631 | 0.707 | 0.7 | 0.92 |
| A549 |  | 0.114 | 0.132 | 0.155 |  |  |  |  |  |  |  |  |  |  |  |  |  |  |
| A-427 |  | 0.303 | 0.298 | 0.337 | 0.363 | 0.505 | 0.514 | 0.432 | 0.452 | 0.728 | 0.712 | 0.8 | 0.762 | 0.698 |  | 0.435 | 0.414 | 0.351 |
| ABC-1 | 0.27 | 0.24 | 0.253 | 0.274 | 0.37 | 0.477 | 0.478 | 0.424 | 0.257 | 0.859 | 0.908 | 0.743 | 0.749 | 1.08 | 0.425 | 0.518 | 0.482 | 0.292 |
| BEN | 0.321 | 0.283 | 0.228 | 0.225 | 0.305 | 0.303 | 0.497 | 0.313 | 0.286 | 0.639 | 0.695 | 0.737 | 0.697 | 0.661 | 0.287 | 0.344 | 0.324 | 0.307 |
| CAL-12T | 0.489 | 0.548 | 0.559 | 0.517 | 0.589 | 1.14 | 0.591 | 0.59 | 0.431 | 0.637 | 0.656 | 0.542 | 0.577 | 0.666 | 0.412 | 0.717 | 0.617 | 0.715 |
| COR-L23 | 0.363 | 0.379 | 0.402 | 0.227 | 0.614 | 0.715 | 0.534 | 1.11 | 0.723 |  |  |  |  |  | 0.595 | 0.756 | 0.789 | 0.409 |
| COR-L 105 |  | 0.562 | 0.458 | 0.471 | 0.72 | 0.737 | 0.734 | 0.628 | 0.602 |  |  |  |  |  |  | 0.641 | 0.72 | 0.731 |
| ChaGo-K-1 | 0.537 | 0.494 | 0.46 | 0.513 | 0.475 | 0.569 | 0.485 | 0.571 | 0.528 | 0.922 | 0.826 | 0.873 | 0.827 | 0.838 | 0.656 | 0.606 | 0.539 | 0.471 |
| EKVX | 0.201 | 0.251 |  | 0.222 | 0.777 | 0.775 | 0.71 | 0.724 | 0.509 | 0.685 | 0.607 | 0.601 | 0.579 | 0.594 | 0.6 | 0.714 |  | 0.677 |
| EMC-BAC-2 | 0.475 | 0.481 | 0.476 | 0.396 | 0.41 | 0.411 | 0.312 | 0.355 | 0.357 | 1.06 | 1.05 | 1.13 | 1.07 | 0.992 | 0.353 | 0.363 | 0.343 | 0.271 |
| EPLC-272H | 0.263 | 0.273 | 0.26 | 0.144 | 0.253 | 0.286 | 0.263 | 0.27 | 0.289 | 0.24 | 0.222 | 0.161 | 0.171 | 0.197 | 0.256 | 0.305 | 0.273 | 0.263 |
| H3255 | 0.367 | 0.358 | 0.405 | 0.416 | 0.684 | 0.599 | 0.671 | 0.553 | 0.532 | 0.766 | 0.907 | 0.932 | 0.822 | 0.71 | 0.496 | 0.582 | 0.55 | 0.629 |
| HARA | 0.411 | 0.452 | 0.427 | 0.124 | 0.386 | 0.661 | 0.524 | 0.428 | 0.297 | 0.464 | 0.38 | 0.513 | 0.519 | 0.274 | 0.295 | 0.479 | 0.401 | 0.175 |
| HCC-15 | 0.411 | 0.509 | 0.486 | 0.496 | 0.667 | 0.735 | 0.699 | 0.704 | 0.571 | 1.1 | 1.02 | 0.673 | 1.21 | 1.13 | 0.501 | 0.64 | 0.624 | 0.592 |
| HCC-44 | 0.186 | 0.265 | 0.169 | 0.166 |  | 0.588 | 0.518 | 0.558 | 0.523 | 0.992 | 1.04 | 1.02 | 1.1 | 1.09 | 0.373 | 0.587 | 0.4 | 0.27 |
| HCC-78 |  | 0.761 | 0.596 | 0.428 | 0.42 | 0.405 | 0.397 | 0.381 | 0.326 | 0.483 | 0.697 | 0.55 | 0.545 | 0.507 |  | 0.372 | 0.341 | 0.395 |
| HCC-366 | 0.509 | 0.606 | 0.619 | 0.432 | 1.32 | 1.18 | 0.875 | 0.945 | 0.719 | 0.325 | 0.202 | 0.242 | 0.0941 | 0.146 | 0.809 | 1.05 | 0.842 | 0.523 |
| HCC-827 | 0.345 | 0.4 | 0.396 | 0.435 | 0.691 | 0.862 | 0.699 | 0.881 | 0.739 | 0.197 | 0.269 | 0.233 | 0.201 | 0.148 | 0.687 | 0.83 | 0.721 | 0.841 |
| HOP-62 | 0.586 | 0.657 | 0.623 | 0.503 | 0.795 | 0.728 | 0.591 | 0.958 | 0.756 | 0.424 | 0.545 | 0.661 | 0.788 | 0.641 | 0.636 | 0.815 | 0.79 | 0.625 |
